Experimental data from PMC4790851, “Iminosugars Inhibit Dengue Virus Production via Inhibition of ER Alpha-Glucosidases—Not Glycolipid Processing Enzymes” (PLoS Neglected Tropical Diseases, 2016).

The compounds below were run against T1, Mouse ER α-glucosidase II (Mus musculus, UniProt Q8BHN3) (assay: In vitro enzyme inhibition, 4MUG hydrolysis). Settings: concentration required to inhibit the enzyme to 50% activity.
T1 sequence (Q8BHN3 33-944): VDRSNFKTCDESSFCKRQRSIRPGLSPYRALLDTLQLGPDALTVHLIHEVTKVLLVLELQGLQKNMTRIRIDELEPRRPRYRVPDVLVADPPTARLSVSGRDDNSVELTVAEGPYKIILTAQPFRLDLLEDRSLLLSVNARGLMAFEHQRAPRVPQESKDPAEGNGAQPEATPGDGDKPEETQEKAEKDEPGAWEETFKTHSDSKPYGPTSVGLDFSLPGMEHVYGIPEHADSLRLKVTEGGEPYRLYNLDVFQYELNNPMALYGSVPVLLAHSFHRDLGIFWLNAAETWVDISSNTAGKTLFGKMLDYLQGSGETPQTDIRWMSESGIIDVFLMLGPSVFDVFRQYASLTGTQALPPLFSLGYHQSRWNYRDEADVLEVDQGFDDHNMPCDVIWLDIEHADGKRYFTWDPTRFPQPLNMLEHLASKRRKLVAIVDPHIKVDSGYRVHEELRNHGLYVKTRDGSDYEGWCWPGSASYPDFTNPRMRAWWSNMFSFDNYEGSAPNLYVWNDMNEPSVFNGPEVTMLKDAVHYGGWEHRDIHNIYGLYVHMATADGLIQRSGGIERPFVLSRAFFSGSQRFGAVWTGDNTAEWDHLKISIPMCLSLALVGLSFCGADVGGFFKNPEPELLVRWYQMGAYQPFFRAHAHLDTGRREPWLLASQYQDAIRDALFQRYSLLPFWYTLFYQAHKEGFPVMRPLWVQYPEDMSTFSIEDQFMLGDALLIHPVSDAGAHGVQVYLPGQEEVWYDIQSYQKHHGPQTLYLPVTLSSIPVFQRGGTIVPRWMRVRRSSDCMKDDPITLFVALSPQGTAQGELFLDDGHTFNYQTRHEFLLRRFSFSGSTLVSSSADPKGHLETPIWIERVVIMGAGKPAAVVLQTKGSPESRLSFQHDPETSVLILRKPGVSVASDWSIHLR
T1 sequence (O08795 15-521 partner): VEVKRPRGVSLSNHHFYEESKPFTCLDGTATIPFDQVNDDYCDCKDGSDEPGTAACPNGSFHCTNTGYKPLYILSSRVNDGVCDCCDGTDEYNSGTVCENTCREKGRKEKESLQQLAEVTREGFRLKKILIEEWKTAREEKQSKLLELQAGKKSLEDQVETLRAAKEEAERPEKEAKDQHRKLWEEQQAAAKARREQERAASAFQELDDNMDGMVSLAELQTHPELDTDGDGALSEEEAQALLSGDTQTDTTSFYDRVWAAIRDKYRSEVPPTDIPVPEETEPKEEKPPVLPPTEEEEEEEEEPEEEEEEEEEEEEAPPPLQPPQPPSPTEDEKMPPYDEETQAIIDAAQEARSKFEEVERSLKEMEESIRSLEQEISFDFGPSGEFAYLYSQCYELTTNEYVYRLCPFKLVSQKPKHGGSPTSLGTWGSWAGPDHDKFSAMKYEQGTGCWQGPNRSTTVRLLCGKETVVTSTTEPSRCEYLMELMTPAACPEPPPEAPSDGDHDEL
Type: biochemical
Description: Recombinant Mus musculus ER alpha-glucosidase II inhibition was measured by incubating 20 nM enzyme with various concentrations of inhibitors in 100 mM potassium phosphate pH 7.2 at 37 °C for 5 minutes. Activity was measured by addition of 0.25 mM 4-methylumbelliferyl α-D-glucopyranoside (4MUG) (Sigma Aldrich) in black, non-binding surface-treated microplates (Corning). Fluorescence upon hydrolysis of the 4MUG was measured at λex of 355 nm and λem of 460 nm in a M5 multi-mode plate reader (Molecular Devices) at 37 °C, measuring fluorescence every minute for a total of 30 minutes. The initial velocity was fit in the linear range of measurements, and activity was normalized to the uninhibited control in order to plot activity against the inhibitor concentration. A sigmoidal, four-parameter function with a variable slope was used to determine the EC50 values in Prism (GraphPad).

Structure (SMILES)	IC50
CCCC(=O)O[C@H]1CN2CC[C@H](O)[C@@H]2[C@@H](O)[C@@H]1O [Celgosivir, 6-O-butanoyl-castanospermine]	158 µM
CCCCN1C[C@H](O)[C@@H](O)[C@@H](O)[C@H]1CO [NB-DGJ]	> 1000 µM
CCCCN1C[C@H](O)[C@@H](O)[C@H](O)[C@H]1CO [NB-DNJ, N-butyl-DNJ]	5.2 µM
CCCCCCCCCN1C[C@H](O)[C@@H](O)[C@@H](O)[C@H]1CO [NN-DGJ]	> 1000 µM
